How the values were obtained:
E. coli ATCC 25922 = test: OSID-AST (object scattering intensity detection) with pure E. coli culture; assay type: cell-based; conditions: 32 μg/ml nitrofurantoin or 2 μg/ml ciprofloxacin, 5 representative tests
Procedure: The integrated object scattering intensity quantification enables detection of bacterial infection and AST for infection positive samples with an algorithm such as that depicted in FIG. 1C. Two test solutions are prepared from a patient's sample. One solution with medium and antibiotics for AST and the other one with medium only as control. To detect bacterial infection, the integrated object scattering intensity in the control group is quantified over time (e.g., the object scattering intensity is measured every 5 min with the 1 min video and for a total of 90 min). Clinical decision determination is based on integrated object scattering intensity. […] Otherwise, the sample is determined as infection negative. For antibiotic resistance detection, the integrated object intensity change over time in the raw sample (ΔIC=ICt−IC0) and in the antibiotic treated sample (ΔIABX=IABXt−IABX0) are calculated. […]
To establish the method, E. coli and S. saprophyticus cultures (see Materials and Methods) with and without antibiotics were imaged for bacteria growth measurements. […] The integrated object intensity of all cells was quantified with a 1 min duration video in every 5 min interval for a total of 90 min after real-time background removal processing. […] To accurately track E. coli growth, the averaged intensity of a 1 min video was quantified in every 5 min.

[1] = test system: S. saprophyticus ATCC 15305; test: OSID-AST (object scattering intensity detection) with pure S. saprophyticus culture; conditions: 2 μg/ml ciprofloxacin
Source text: ICt is the integrated object scattering intensity of samples without antibiotics at time t, IC0 is the initial intensity of the same sample. ΔIC=ICt−IC0 and ΔIABX=IABXt−IABX0, represent the integrated object scattering intensity change at time t for antibiotic-untreated (control) and -treated samples, respectively. […] For antibiotic resistance detection, the integrated object intensity change over time in the raw sample (ΔIC=ICt−IC0) and in the antibiotic treated sample (ΔIABX=IABXt−IABX0) are calculated. If the ratio between the two (ΔIABX/ΔIC) is above a resistant threshold (TR), or ΔIABX/ΔIC>TR, which indicates insufficient bacterial inhibition by the antibiotic, the sample is identified as resistant. If the ratio is at or below TR, bacteria growth is inhibited by the antibiotic, and the sample is defined as susceptible to that antibiotic.

SMILES	time at which antibiotic susceptibility of E. coli cells can be determined (object intensity detection) (E. coli ATCC 25922) [min]	ΔIABX/ΔIC ([1]; 90 min, resistance threshold 0.5)	object intensity change of antibiotic treated sample ([1]; 90 min detection, control sample ~1.7 times) [times]	antibiotic susceptibility determination with OSID-AST ([1]; threshold 0.5)
O=C1CN(/N=C/c2ccc([N+](=O)[O-])o2)C(=O)N1 [nitrofurantoin]	40			
O=C(O)c1cn(C2CC2)c2cc(N3CCNCC3)c(F)cc2c1=O [ciprofloxacin]	60	~0.14	~1.1	susceptible

Reference: patent publication US12049662B2, “Rapid antimicrobial susceptibility testing by video-based object scattering intensity detection” (ARIZONA BOARD OF REGENTS ON BEHALF OF ARIZONA STATE …, priority 2021, dated 2024)
